Where a chain is given by its changes, count along the chain named. Numbers in names are those of the source. Where a SMILES comes first, the peptide text is derived from it.
T1: ADO (2-aminoethanethiol dioxygenase), iron-bound wild type (Homo sapiens, UniProt Q96SZ5)
T1 construct: Full-length human ADO (UniProt ID: Q96SZ5) was cloned; made in house; host or cells: Rosetta2(DE3) Escherichia coli
T1 sequence (Q96SZ5 1-270): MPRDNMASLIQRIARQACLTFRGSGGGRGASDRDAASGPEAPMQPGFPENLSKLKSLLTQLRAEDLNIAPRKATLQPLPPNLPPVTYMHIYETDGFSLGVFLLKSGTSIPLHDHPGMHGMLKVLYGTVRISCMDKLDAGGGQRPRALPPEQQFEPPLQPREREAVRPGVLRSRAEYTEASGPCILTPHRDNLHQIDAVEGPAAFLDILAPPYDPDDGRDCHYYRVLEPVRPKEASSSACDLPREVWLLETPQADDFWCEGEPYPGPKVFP

T2: ADO-Zn^2+ (Homo sapiens, UniProt Q96SZ5)
T2 construct: Full-length human ADO (UniProt ID: Q96SZ5) was cloned; made in house; host or cells: Rosetta2(DE3) Escherichia coli, M9 minimal media with 0.2 mM Co2+ or Zn2+
T2 sequence (Q96SZ5 1-270): T1 sequence (Q96SZ5 1-270)

T3: ADO-Co^2+ (Homo sapiens, UniProt Q96SZ5)
T3 construct: Full-length human ADO (UniProt ID: Q96SZ5) was cloned; made in house; host or cells: Rosetta2(DE3) Escherichia coli, M9 minimal media with 0.2 mM Co2+ or Zn2+
T3 sequence (Q96SZ5 1-270): T1 sequence (Q96SZ5 1-270)

T4: ADO (Homo sapiens, UniProt Q96SZ5)
T4 construct: Full-length human ADO (UniProt ID: Q96SZ5) was cloned; made in house; host or cells: Rosetta2(DE3) Escherichia coli
T4 sequence (Q96SZ5 1-270): T1 sequence (Q96SZ5 1-270)

T5: ADO-H193D (Homo sapiens, UniProt Q96SZ5, H193D)
T5 construct: Full-length human ADO (UniProt ID: Q96SZ5) was cloned; made in house; host or cells: Rosetta2(DE3) Escherichia coli
T5 sequence (Q96SZ5 1-270 H193D): T1 sequence (Q96SZ5 1-270) with H193D

B1: RGS5^FL-C2S: full-length RGS5 C2S mutant (protein)
chain: MSKGLAALPHSCLERAKEIKIKLGILLQKPDSVGDLVIPYNEKPEKPAKTQKTSLDEALQWRDSLDKLLQNNYGLASFKSFLKSEFSEENLEFWIACEDYKKIKSPAKMAEKAKQIYEEFIQTEAPKEVNIDHFTKDITMKNLVEPSLSSFDMAQKRIHALMEKDSLPRFVRSEFYQELIK
modifications: left off: His tag, N-terminal, cleaved | SUMO, N-terminal, cleaved
notes: full-length RGS5 C2S mutant

Legend:
[1] = molecular target: T1, ADO (2-aminoethanethiol dioxygenase), iron-bound wild type; assay: SPR binding of peptide/protein substrates to immobilised ADO; conditions: SPR steady state, 1:1 binding model, biotinylated ADO on Biotin CAP chip, 4 °C, 20 mM Hepes pH 7.5, 500 mM NaCl, 10 mM DTT, 0.1% tween-20; geometric mean (± SD) of minimum three independent measurements; read-out: Equilibrium dissociation constant KD
Description: ADO catalyzes the O2-dependent sulfinylation of Nt-cys residues, which reportedly bind to the iron cofactor in a monodentate arrangement through ligation of the thiol group ([14], [15]). To test the importance of Nt-cys modifications and substitutions on ADO association, a SPR assay was established. […] Data collected under steady state conditions is presented in the main text and kinetic constants are provided in the Tables S1–S8 (alongside steady state measurements). All measurements were collected at 4 °C to minimize enzyme activity.
(§1) SPR measurements were made using a Biacore T200 (Cytiva) instrument and data were analyzed using the Biacore Insight Evaluation Software (Cytiva; https://www.cytivalifesciences.com/en/us/shop/protein-analysis/spr-label-free-analysis/spr-software-and-extensions/biacore-insight-evaluation-software-p-23528). Biotinylated-ADO was immobilized on a Biotin CAP chip (Cytiva) with a target density of ∼2500 to 3000 RU and peptide/protein substrates were injected over the chip. […] A buffer comprising 20 mM Hepes pH 7.5, 500 mM NaCl, 10 mM DTT, and 0.1% (v/v) tween-20 was used as the running buffer at a flow rate of 50 μl/min.
For metal-chelation experiments, a mixture of 10 mM 1, 10-phenanthroline and 100 mM EDTA (pH 8) was injected onto the chip using 10 × 60 s injections at a 100 μl/min flow rate. […] The instrument and chip were primed into buffer excluding reducing agents before conducting metal chelation and iron reconstitution.

ADO-Zn^2+ [2] = molecular target: T2, ADO-Zn^2+; assay: SPR binding to zinc-substituted ADO; conditions: SPR steady state, 1:1 model, 4 °C; geometric mean of minimum three independent measurements
Protocol: To study if different metals can compensate for the inherent iron cofactor, zinc (Zn^2+) and cobalt (Co^2+) substituted ADO was produced through minimal media expression, validated by ICP-MS, and analyzed for binding by SPR (Fig. 2E).
as §1

ADO-Zn^2+ [3] = molecular target: T2, ADO-Zn^2+; assay: LC-MS turnover time course with zinc-substituted ADO; format: biochemical; conditions: 100 μM peptide, 0.1 μM enzyme, 37 °C, attributed to residual iron bound ADO
Protocol: (§2) The catalytic functionality of the metal substituted ADO proteins was subsequently assessed by LC-MS using RGS5 peptide as a representative protein substrate. […] However, product formation was observed following long incubation times (≥30 min), with ∼80% conversion detected overnight, which is likely attributed to the activity of residual iron bound ADO (Fig. 2, E and H). Together, these findings indicate that different transition metals can substitute iron to facilitate protein substrate binding but not catalysis.
(§3) The enzymatic activity of ADO was examined by incubating between 0 to 1000 μM peptide and protein substrates with 0.05 to 0.1 μM ADO in a bench-top thermomixer at 37 °C for 45 s. Otherwise stated, the reaction buffer contained 50 mM Tris pH 7.5, 50 mM NaCl, and 5 mM TCEP. […]
(§4) Peptide and protein samples were injected onto a Chromolith RP-18 Endcapped HPLC Columns (100–2 mm; Merck) and Discovery BIO Wide Pore C5 HPLC Column (Supelco), respectively, heated to 40 °C and eluted at 0.3 ml/min using a gradient of 95% deionized water supplemented with 0.1% (v/v) formic acid to 95% acetonitrile. Oxidation was monitored by an ultra high-performance liquid chromatography MS using ExionLC AD (Sciex) and SelexION (Sciex) mass spectrometer operated in a positive electrospray TOF (+ESI-TOF) mode. […]

ADO-Co^2+ = molecular target: T3, ADO-Co^2+; assay: LC-MS turnover time course with cobalt-substituted ADO; format: biochemical; conditions: 100 μM peptide, 0.1 μM enzyme, 37 °C, attributed to residual iron bound ADO
Protocol: as §2, §3, §4

ADO = molecular target: T4, ADO; assay: 15N-HSQC NMR titration with ADO; format: binding; conditions: 50 μM 15N-labelled protein, 20 mM Hepes pH 7.5, 150 mM NaCl, 10 mM DTT, ADO up to 800 μM
Protocol: (§5) For titrations with ADO, ^15N-labeled RGS5^FL proteins were prepared at 50 μM, in buffer containing 20 mM Hepes pH 7.5, 150 mM NaCl, 10 mM DTT, and 10% (v/v) D2O. ^15N-HSQC spectra were collected before and after the addition of ADO to the labeled RGS5^FL samples. Intensity-based CSP plots were produced by calculating peak height values from the ^15N-HSQCs before and after addition of ADO and normalizing against the heights of ∼5 peaks from the HSQC that remained invariant throughout the titration.

ADO-H193D = molecular target: T5, ADO-H193D; assay: 15N-HSQC NMR titration with ADO-H193D; format: binding; conditions: 50 μM 15N-labelled protein, 150 μM ADO-H193D
Protocol: as §5

Molecule	Kd [1]	Kd (ADO-Zn^2+ [2])	Conversion by ADO-Zn^2+ overnight (ADO-Zn^2+ [3])	Conversion by ADO-Co^2+ overnight (ADO-Co^2+)	15N-HSQC chemical shift perturbations on titration of ADO (ADO)	15N-HSQC interaction on titration of ADO-H193D (ADO-H193D)
CC(C)C[C@H](NC(=O)CNC(=O)[C@H](CCCCN)NC(=O)[C@@H](N)CS)C(=O)N[C@@H](C)C(=O)N[C@@H](C)C(=O)N[C@@H](CC(C)C)C(=O)N1CCC[C@H]1C(=O)N[C@@H](Cc1c[nH]cn1)C(=O)N[C@@H](CO)C(=O)N[C@@H](CS)C(=O)N[C@@H](CC(C)C)C(=O)N[C@@H](CCC(=O)O)C(=O)N[C@@H](CCCNC(=N)N)C(N)=O [RGS5] (H-CKGLAALPHSCLER-NH2)	290 ± 45 nM	250 ± 370 nM	~80%	~80%		
B1					induced CSPs in the portion of the ^15N-HSQC corresponding to the disordered N terminus of RGS5	no interaction was observed

From PMC11406360, “The enzymatic oxygen sensor cysteamine dioxygenase binds its protein substrates through their N-termini” (The Journal of Biological Chemistry, 2024)
